Results taken from ChEMBL document CHEMBL5523733, “Small Molecule Targeting PPM1A Activates Autophagy for Mycobacterium tuberculosis Host-Directed Therapy” (J Med Chem, 2024).
Activity calls are given as the source filed them. No cut-off for these calls is given here.

Tests used:
Protein phosphatase 1A [1] = molecular target: T1, Protein phosphatase 1A (Homo sapiens, UniProt P35813); experiment: Inhibition of recombinant human PPM1A using pNPP as substrate preincubated for 15 mins followed by substrate addition measured after 20 mins by absorbance based assay
T1 sequence (P35813 whole entry): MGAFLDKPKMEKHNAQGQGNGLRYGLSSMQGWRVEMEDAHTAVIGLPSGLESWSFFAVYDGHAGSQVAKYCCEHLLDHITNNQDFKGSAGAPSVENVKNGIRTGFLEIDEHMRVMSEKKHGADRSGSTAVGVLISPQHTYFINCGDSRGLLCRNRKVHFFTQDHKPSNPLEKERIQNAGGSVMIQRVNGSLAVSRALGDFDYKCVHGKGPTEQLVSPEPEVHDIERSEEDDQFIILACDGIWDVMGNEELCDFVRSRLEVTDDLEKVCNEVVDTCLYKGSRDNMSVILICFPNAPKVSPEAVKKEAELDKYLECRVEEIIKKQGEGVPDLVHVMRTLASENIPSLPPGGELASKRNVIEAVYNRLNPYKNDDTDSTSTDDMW

[2] = Cytotoxicity against human THP-1 cells by resazurin dye based assay; type: toxicity, cell-based
[3] = Cytotoxicity against human Caco-2 cells by resazurin dye based assay; type: toxicity, cell-based
THP-1 [4] = experiment: Cytotoxicity against human THP-1 monocytes assessed as cell viability at 0.1 to 10 uM incubated for 24 hrs by flow cytometry; type: toxicity, cell-based; conditions: thp-1, 24 h, dose 0.1-10 µM
Protein phosphatase 1A [5] = molecular target: T1, Protein phosphatase 1A; experiment: Inhibition of PPM1A (unknown origin)
dsDNA [6] = experiment: Binding affinity to dsDNA (unknown origin) assessed as reduction in fluorescence intensity at 5 uM; type: nucleic-acid assay
THP-1 [7] = experiment: Cytotoxicity against human THP-1 macrophages assessed as cell viability at 0.1 to 10 uM incubated for 24 hrs by flow cytometry; type: toxicity, cell-based; conditions: thp-1, 24 h, dose 0.1-10 µM
THP-1 [8] = experiment: Induction of DNA damage in human THP-1 monocytes assessed as increase in gamma-H2AX at 0.1 to 10 uM incubated for 24 hrs by Western blot analysis; type: toxicity, cell-based; conditions: thp-1, 24 h, dose 0.1-10 µM
THP-1 [9] = experiment: Induction of DNA damage in human THP-1 macrophages assessed as increase in gamma-H2AX at 0.1 to 10 uM incubated for 24 hrs by Western blot analysis; type: toxicity, cell-based; conditions: thp-1, 24 h, dose 0.1-10 µM
[10] = Toxicity in BALB/c mouse assessed as change in kidney weight at 12.5 to 100 mg/kg, ip administered daily for 14 days; type: organism-based; conditions: in vivo, 336 h, dose 12.5-100 mg/kg, time 14 day
[11] = AUC (infinity) in ICR mouse at 10 mg/kg, po measured for 24 hrs; type: ADME, organism-based; conditions: in vivo
[12] = Tmax in ICR mouse at 10 mg/kg, po measured for 24 hrs; type: ADME, organism-based; conditions: in vivo
[13] = Oral bioavailability in ICR mouse at 10 mg/kg measured for 24 hrs; type: ADME, organism-based; conditions: in vivo
[14] = Toxicity in BALB/c mouse assessed as increase in irritability at 100 mg/kg, ip administered daily for 14 days; type: organism-based; conditions: in vivo, 336 h, time 14 day
[15] = Half life in ICR mouse at 10 mg/kg, po measured for 24 hrs; type: ADME, organism-based; conditions: in vivo
[16] = Toxicity in BALB/c mouse infected with Mycobacterium tuberculosis mc2 6206 assessed as body weight loss at 12.5 to 50 mg/kg, ip administered daily for 8 days; type: organism-based; conditions: in vivo, 192 h, dose 12.5-50 mg/kg, time 8 day
[17] = AUClast in ICR mouse at 2 mg/kg, iv measured for 24 hrs; type: ADME, organism-based; conditions: in vivo
dsDNA [18] = experiment: Binding affinity to dsDNA (unknown origin) assessed as reduction in fluorescence intensity at 5 uM relative to control; type: nucleic-acid assay; set-up: scale not given: the % may be the effect or the level left
[19] = Toxicity in BALB/c mouse assessed as change in lung weight at 12.5 to 100 mg/kg, ip administered daily for 14 days; type: organism-based; conditions: in vivo, 336 h, dose 12.5-100 mg/kg, time 14 day
THP-1 [20] = experiment: Induction of autophagy in human THP-1 macrophages assessed as increase in p62 phosphorylation at S403 incubated for 24 hrs in presence of bafilomycin by Western blot analysis; type: functional, cell-based; conditions: dose 0.25-8 µM
THP-1 [21] = experiment: Induction of autophagy in human THP-1 macrophages assessed as increase in lipidated LC3-II level at 0.25 to 8 uM incubated for 24 hrs in presence of bafilomycin by Western blot analysis; type: functional, cell-based; conditions: dose 0.25-8 µM
[22] = tested on: Mycobacterium tuberculosis; experiment: Anti-mycobacterial activity against Mycobacterium tuberculosis mc2 6206 assessed as bacterial growth inhibition at 20 uM incubated for 5 days by resazurin dye based assay; type: functional, organism-based; conditions: time 5.0 day
[23] = Toxicity in BALB/c mouse assessed as visible abnormality at 12.5 to 50 mg/kg, ip administered daily for 14 days; type: organism-based; conditions: in vivo, 336 h, dose 12.5-50 mg/kg, time 14 day
[24] = tested on: Mycobacterium tuberculosis; experiment: Anti-mycobacterial activity against Mycobacterium tuberculosis mc2 6206 infected in BALB/c mouse assessed as reduction in bacterial burden in spleen administered intraperitoneally daily for 8 days; type: functional, organism-based; conditions: dose 12.5-50 mg/kg, route ip, time 8.0 day
[25] = Toxicity in BALB/c mouse assessed as change in spleen weight at 12.5 to 100 mg/kg, ip administered daily for 14 days; type: organism-based; conditions: in vivo, 336 h, dose 12.5-100 mg/kg, time 14 day
[26] = Toxicity in BALB/c mouse assessed as change in liver weight at 12.5 to 100 mg/kg, ip administered daily for 14 days; type: organism-based; conditions: in vivo, 336 h, dose 12.5-100 mg/kg, time 14 day
[27] = Toxicity in BALB/c mouse assessed as body weight change at 12.5 to 100 mg/kg, ip administered daily for 14 days; type: organism-based; conditions: in vivo, 336 h, dose 12.5-100 mg/kg, time 14 day
[28] = Toxicity in BALB/c mouse infected with Mycobacterium tuberculosis mc2 6206 assessed as visible toxic signs at 12.5 to 50 mg/kg, ip administered daily for 8 days; type: organism-based; conditions: in vivo, 192 h, dose 12.5-50 mg/kg, time 8 day
[29] = Half life in ICR mouse at 2 mg/kg, iv measured for 24 hrs; type: ADME, organism-based; conditions: in vivo
[30] = tested on: Mycobacterium tuberculosis; experiment: Inhibition of Mycobacterium tuberculosis mc2 6206 burden in lung of BALB/c mouse infected with at 12.5 to 50 mg/kg, ip administered daily for 8 days; type: functional, organism-based; conditions: dose 12.5-50 mg/kg, time 8.0 day
[31] = Cmax in ICR mouse at 10 mg/kg, po measured for 24 hrs; type: ADME, organism-based; conditions: in vivo
[32] = AUClast in ICR mouse at 10 mg/kg, po measured for 24 hrs; type: ADME, organism-based; conditions: in vivo
[33] = Clearance in ICR mouse at 2 mg/kg, iv measured for 24 hrs; type: ADME, organism-based; conditions: in vivo
[34] = AUC (infinity) in ICR mouse at 2 mg/kg, iv measured for 24 hrs; type: ADME, organism-based; conditions: in vivo
[35] = Toxicity in BALB/c mouse assessed as increase in stress level at 100 mg/kg, ip administered daily for 14 days; type: organism-based; conditions: in vivo, 336 h, time 14 day
[36] = Toxicity in BALB/c mouse assessed as increase in brain weight at higher concentration administered intraperitoneally daily for 14 days; type: tissue-based; conditions: in vivo, ip, 336 h, time 14 day

Question: For `COc1cc2c[n+](CCO)c3ccc(F)cc3c2cc1OC`, which IC50 (Protein phosphatase 1A [1]) is on record?
Answer: > 20 µM

Question: For `OCC[n+]1cc2cc3c(cc2c2cc(F)ccc21)OCO3`, which IC50 (Protein phosphatase 1A [1]) is on record?
Answer: > 20 µM

Question: Which IC50 (Protein phosphatase 1A [1]) does the source give for `CC(C)Oc1ccc2c(c1)c[n+](CCO)c1ccc(F)cc21` here?
Answer: 3.72 µM

Question: Which IC50 (Protein phosphatase 1A [1]) does the source give for `CC(C)COc1ccc2c(c1)c[n+](CCO)c1ccc(F)cc21` here?
Answer: > 20 µM

Question: Which IC50 (Protein phosphatase 1A [1]) does the source give for `COc1ccc2c(c1)c[n+](CCCO)c1ccc(F)cc21` here?
Answer: > 10 µM

Question: With `COc1ccc(-c2cc3c(cc2OC)c[n+](CCO)c2ccc(F)cc32)cc1` as the compound, how does the CC50 [2] read?
Answer: 37.2 µM

Question: What about the IC50 (Protein phosphatase 1A [1]) of the same compound?
Answer: 0.29 µM

Question: And the CC50 [3]?
Answer: 74.6 µM

Question: With `COc1ccc2c(c1)c[n+](CCO)c1ccc(C)cc21` as the compound, how does the IC50 (Protein phosphatase 1A [1]) read?
Answer: > 20 µM

Question: With `COc1ccc2c(c1)c[n+](CCO)c1cc(F)ccc21` as the compound, how does the IC50 (Protein phosphatase 1A [1]) read?
Answer: > 20 µM

Question: With `COc1cc2c[n+](CCO)c3ccc(F)cc3c2cc1-c1ccc(F)cc1` as the compound, how does the IC50 (Protein phosphatase 1A [1]) read?
Answer: > 20 µM

Question: With `COc1cc2c[n+](CCO)c3ccc(F)cc3c2cc1C1CC1` as the compound, how does the IC50 (Protein phosphatase 1A [1]) read?
Answer: > 20 µM

Question: Which IC50 (Protein phosphatase 1A [1]) does the source give for `COc1ccc2c(c1)c[n+](NCCO)c1ccc(F)cc21` here?
Answer: > 10 µM

Question: With `OCC[n+]1cc2ccccc2c2cc(F)ccc21` as the compound, how does the IC50 (Protein phosphatase 1A [1]) read?
Answer: > 20 µM

Question: With `COc1cc2c[n+](CCO)c3ccc(F)cc3c2cc1-c1ccc(NC(=O)OC(C)(C)C)cc1` as the compound, how does the IC50 (Protein phosphatase 1A [1]) read?
Answer: > 20 µM

Question: For `OCC[n+]1cccc2cc(F)ccc21`, which IC50 (Protein phosphatase 1A [1]) is on record?
Answer: > 20 µM

Question: For `COc1cc2c[n+](CCO)c3ccc(F)cc3c2cc1-c1cc(C)cc(C)c1`, which IC50 (Protein phosphatase 1A [1]) is on record?
Answer: > 20 µM

Question: With `Cc1ccc2c(c1)c[n+](CCO)c1ccc(F)cc21` as the compound, how does the IC50 (Protein phosphatase 1A [1]) read?
Answer: > 20 µM

Question: Which IC50 (Protein phosphatase 1A [1]) does the source give for `CCOc1ccc2c(c1)c[n+](CCO)c1ccc(OC)cc21` here?
Answer: > 20 µM

Question: Which results are given for `COc1ccc2c(c1)c[n+](CCO)c1ccc(F)cc21.[Br-]`?
Answer: Activity (THP-1 [4]): Non-Toxic; CC50 [2]: 94.8 µM; IC50 (Protein phosphatase 1A [5]): 1.19 µM; Ki (Protein phosphatase 1A [5]): 0.84 µM; Activity (dsDNA [6]): inactive; Activity (THP-1 [7]): Non-Toxic; IC50 (Protein phosphatase 1A [1]): 1.19 µM; CC50 [3]: > 200 µM; Activity (THP-1 [8]): Non-Toxic; Activity (THP-1 [9]): Non-Toxic

Question: Which Activity [10] does the source give for `CCOc1ccc2c(c1)c[n+](CCO)c1ccc(F)cc21.[Br-]` here?
Answer: Non-Toxic

Question: What about the AUC(0-inf) [11] of the same compound?
Answer: 761 ng·h/mL

Question: What about the Tmax [12] of the same compound?
Answer: 15 min

Question: And the bioavailability [13]?
Answer: 73.7%

Question: And the Activity [14]?
Answer: Toxic

Question: And the half-life [15]?
Answer: 46.3 min

Question: What about the Activity [16] of the same compound?
Answer: Non-Toxic

Question: And the Activity (THP-1 [4])?
Answer: Non-Toxic

Question: And the AUC(0-t) at 24 h [17]?
Answer: 206 ng·h/mL

Question: What about the Activity (dsDNA [18]) of the same compound?
Answer: 10%

Question: And the Activity [19]?
Answer: Non-Toxic

Question: What about the CC50 [2] of the same compound?
Answer: 138 µM

Question: And the Activity (THP-1 [20])?
Answer: Dose-Dependent Effect

Question: And the Activity (THP-1 [21])?
Answer: Active

Question: What about the inhibition [22] of the same compound?
Answer: inactive

Question: And the Activity (THP-1 [7])?
Answer: Non-Toxic

Question: What about the Activity [23] of the same compound?
Answer: Non-Toxic

Question: And the Activity [24]?
Answer: Dose-Dependent Effect

Question: What about the Activity [25] of the same compound?
Answer: Non-Toxic

Question: And the Activity [26]?
Answer: Non-Toxic

Question: What about the IC50 (Protein phosphatase 1A [1]) of the same compound?
Answer: 0.18 µM

Question: What about the Ki (Protein phosphatase 1A [1]) of the same compound?
Answer: 0.59 µM

Question: And the Activity [27]?
Answer: Non-Toxic

Question: And the CC50 [3]?
Answer: > 200 µM

Question: What about the Activity [28] of the same compound?
Answer: Non-Toxic

Question: And the half-life [29]?
Answer: 38 min

Question: And the inhibition [30]?
Answer: inactive

Question: And the Activity (THP-1 [8])?
Answer: Non-Toxic

Question: What about the Cmax [31] of the same compound?
Answer: 908 ng/mL

Question: What about the AUC(0-t) at 24 h [32] of the same compound?
Answer: 759 ng·h/mL

Question: What about the clearance [33] of the same compound?
Answer: 170 mL/min/kg

Question: And the AUC(0-inf) [34]?
Answer: 208 ng·h/mL

Question: And the Activity [35]?
Answer: Toxic

Question: And the Activity (THP-1 [9])?
Answer: Non-Toxic

Question: What about the Activity [36] of the same compound?
Answer: Toxic

Question: For `COc1cc2c[n+](CCO)c3ccc(F)cc3c2cc1I`, which IC50 (Protein phosphatase 1A [1]) is on record?
Answer: > 20 µM
